Among the data in ChEMBL document CHEMBL6153024, “A novel life for antitumor combretastatins: Recent developments of hybrids, prodrugs, combination therapies, and antibody-drug conjugates” (Eur J Med Chem, 2025) are IC50 values, retold here.

In this assay the test system is HT-29. Kind of assay: Anticancer activity against human HT-29 cells. The format is functional, cell-based. The settings on record: pooled result: one value given for 4 cell lines, strains, targets or settings.

The term IC50 denotes the concentration needed to halve the response being measured. Read a low IC50 as greater potency in that assay.

Turning to `COc1ccc(C2=C(c3cc(I)c(OC)c(I)c3)C(=O)OC2)cc1`, inhibition was half-maximal at 258 nM (IC50).
